From patent US20250368627A1, “PYRAZOLESULFONAMIDES AS ANTITUMOR AGENTS” (Peloton Therapeutics, Inc., a fully owned subsidiary of …, priority 2019, published 2025)
pEC50, pIC50: −log10 of the molar value.

Experiments:
[1] = biological target: T1, DDB1DB/DCAF15 and RBM39 R1R2 complex (Homo sapiens, UniProt Q14498+Q66K64); experiment: DCAF15 RBM39 Complex Formation Assay (FRET); type: binding; conditions: FRET ratio Em 665/Em 615, incubated overnight at 4° C.
T1 construct: Amino acids 150 to 331 of RBM39 were cloned into pGEX4T3; GST (from vector pGEX4T3); TEV cleavage site (N); made in house; host or cells: DDB1DB/His-DCAF15: baculovirus/Sf9 co-expression; RBM39 R1R2: E. coli (pGEX4T3)
Procedure, shortened: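 Ternary complex formation read by TR-FRET (Em 665/615, excitation 340 nm) after overnight incubation at 4° C of 20 nM baculovirus DDB1DB/His-DCAF15 and 50 nM E. coli RBM39 RRM1-RRM2 FLAG fragment with 14-point, 3-fold compound dilutions from 1 μM; EC50 from 4-parameter fit.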

[2] = tested on: HCT116 human colorectal carcinoma cells; experiment: CellTiter-Glo Luminescent Cell Viability Assay; type: cell-based; conditions: HCT-116, 72 h, 3 days
Procedure, shortened: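 CellTiter-Glo luminescence gave viability after 3 days of compound exposure in HCT116 cells grown in DMEM/10% FBS. Final concentrations ran from 5 to 0.0002 […] in 1:3 steps, each in triplicate, with IC50 derived from the curves.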

T1 sequence (Q66K64 whole entry, the tested form may be a part): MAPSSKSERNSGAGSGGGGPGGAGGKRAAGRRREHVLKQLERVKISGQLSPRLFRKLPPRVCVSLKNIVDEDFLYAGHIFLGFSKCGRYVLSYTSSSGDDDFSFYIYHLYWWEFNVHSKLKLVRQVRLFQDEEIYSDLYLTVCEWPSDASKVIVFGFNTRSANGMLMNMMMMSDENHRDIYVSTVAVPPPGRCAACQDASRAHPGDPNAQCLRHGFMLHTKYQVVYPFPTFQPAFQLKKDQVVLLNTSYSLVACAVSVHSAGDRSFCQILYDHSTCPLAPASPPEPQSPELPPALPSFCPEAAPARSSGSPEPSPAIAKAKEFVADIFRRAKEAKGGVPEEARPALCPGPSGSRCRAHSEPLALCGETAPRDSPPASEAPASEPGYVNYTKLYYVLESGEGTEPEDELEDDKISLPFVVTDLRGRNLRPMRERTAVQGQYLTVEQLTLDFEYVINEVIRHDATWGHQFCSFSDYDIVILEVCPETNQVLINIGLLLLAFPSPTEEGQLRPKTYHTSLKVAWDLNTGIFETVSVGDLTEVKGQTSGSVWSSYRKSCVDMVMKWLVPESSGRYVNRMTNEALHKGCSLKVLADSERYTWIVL
T1 sequence (Q14498 150-331): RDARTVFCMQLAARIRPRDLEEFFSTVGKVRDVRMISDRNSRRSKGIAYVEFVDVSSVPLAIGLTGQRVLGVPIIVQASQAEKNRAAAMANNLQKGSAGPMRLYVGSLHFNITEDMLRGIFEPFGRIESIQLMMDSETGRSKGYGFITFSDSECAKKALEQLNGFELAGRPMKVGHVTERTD
T1 sequence (Q16531 with tags, fused parts or gaps DEL396-708 partner): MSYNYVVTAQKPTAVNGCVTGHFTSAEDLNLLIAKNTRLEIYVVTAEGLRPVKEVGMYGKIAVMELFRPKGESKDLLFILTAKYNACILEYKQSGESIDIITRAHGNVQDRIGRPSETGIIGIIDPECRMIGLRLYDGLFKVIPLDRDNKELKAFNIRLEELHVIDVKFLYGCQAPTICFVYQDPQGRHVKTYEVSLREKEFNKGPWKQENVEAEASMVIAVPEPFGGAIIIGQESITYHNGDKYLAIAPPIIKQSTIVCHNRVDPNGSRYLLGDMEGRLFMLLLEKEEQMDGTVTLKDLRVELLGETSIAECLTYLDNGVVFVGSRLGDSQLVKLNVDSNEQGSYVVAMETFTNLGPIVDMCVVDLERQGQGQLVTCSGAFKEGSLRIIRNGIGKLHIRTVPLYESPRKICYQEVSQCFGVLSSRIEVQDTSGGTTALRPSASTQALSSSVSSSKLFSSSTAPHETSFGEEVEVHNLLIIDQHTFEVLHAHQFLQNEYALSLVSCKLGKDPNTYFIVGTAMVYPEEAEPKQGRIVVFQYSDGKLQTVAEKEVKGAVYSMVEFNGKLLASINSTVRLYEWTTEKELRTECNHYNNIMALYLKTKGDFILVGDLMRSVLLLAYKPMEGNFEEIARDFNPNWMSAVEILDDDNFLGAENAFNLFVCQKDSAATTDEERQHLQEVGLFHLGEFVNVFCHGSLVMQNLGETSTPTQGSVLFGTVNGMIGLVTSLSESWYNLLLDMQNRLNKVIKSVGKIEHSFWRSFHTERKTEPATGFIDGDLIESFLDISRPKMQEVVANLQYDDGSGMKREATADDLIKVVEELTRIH

Compound | pIC50 [1] | pEC50 [2]
N#Cc1c[nH]c2c(NS(=O)(=O)c3cnn(C4(CO)CCC4)c3)ccc(Cl)c12 [Compound 191, N-(4-chloro-3-cyano-1H-indol-7-yl)-1-[1-(hydroxymethyl)cyclobutyl]pyrazole-4-sulfonamide] | > 6.60 | > 6.60
O=S(=O)(Nc1cccc2c(Cl)c[nH]c12)c1cnn(C2COC2)c1 [Compound 40, N-(3-chloro-1H-indol-7-yl)-1-(oxetan-3-yl)pyrazole-4-sulfonamide] | > 6.60 | 6.00 to 6.60
N#Cc1c[nH]c2c(NS(=O)(=O)c3cnn([C@@H](CO)C(F)F)c3)ccc(F)c12 [Compound 228, N-(3-cyano-4-fluoro-1H-indol-7-yl)-1-[(1S)-2,2-difluoro-1-(hydroxymethyl)ethyl]pyrazole-4-sulfonamide] | > 6.60 | < 6.00
Cc1ccc(NS(=O)(=O)c2cnn(CCF)c2)c2[nH]cc(C#N)c12 [Compound 36, N-(3-cyano-4-methyl-1H-indol-7-yl)-1-(2-fluoroethyl)pyrazole-4-sulfonamide] | > 6.60 | > 6.60
Cc1ccc(NS(=O)(=O)c2cnn(CC(C)(C)O)c2)c2[nH]cc(C#N)c12 [Compound 108, N-(3-Cyano-4-methyl-1H-indol-7-yl)-1-(2-hydroxy-2-methyl-propyl)pyrazole-4-sulfonamide] | > 6.60 | 6.00 to 6.60
N#CCCn1cc(S(=O)(=O)Nc2cccc3c(Cl)c[nH]c23)cn1 [Compound 59, N-(3-chloro-1H-indol-7-yl)-1-(2-cyanoethyl)pyrazole-4-sulfonamide] | > 6.60 | > 6.60
Cc1ccc(NS(=O)(=O)c2cnn(C)c2CCO)c2[nH]cc(C#N)c12 [Compound 239, N-(3-cyano-4-methyl-1H-indol-7-yl)-5-(2-hydroxyethyl)-1-methyl-pyrazole-4-sulfonamide] | > 6.60 | < 6.00
Cc1ccc(NS(=O)(=O)c2cnn([C@H]3CNC[C@H]3F)c2)c2[nH]cc(C#N)c12 [Compound 151, N-(3-cyano-4-methyl-1H-indol-7-yl)-1-[(3S,4R)-4-fluoropyrrolidin-3-yl]pyrazole-4-sulfonamide] | > 6.60 | < 6.00
N#Cc1c[nH]c2c(NS(=O)(=O)c3cnn(C(F)F)c3)ccc(Cl)c12 [Compound 119, N-(4-chloro-3-cyano-1H-indol-7-yl)-1-(difluoromethyl)pyrazole-4-sulfonamide] | > 6.60 | > 6.60
CC(C)(C)OC(=O)N1CCC(n2cc(S(=O)(=O)Nc3cccc4c(Cl)c[nH]c34)cn2)CC1 [Compound 26, tert-butyl 4-[4-[(3-chloro-1H-indol-7-yl)sulfamoyl]pyrazol-1-yl]piperidine-1-carboxylate] | > 6.60 | < 6.00
COC(=O)C(C)(C)n1cc(S(=O)(=O)Nc2ccc(Cl)c3c(Cl)c[nH]c23)cn1 [Compound 168, methyl 2-[4-[3,4-dichloro-1H-indol-7-yl)sulfamoyl]pyrazol-1-yl]-2-methyl-propanoate] | > 6.60 | 6.00 to 6.60
CC(C)n1cc(S(=O)(=O)Nc2cccc3c(Cl)c[nH]c23)cn1 [Compound 39, N-(3-chloro-1H-indol-7-yl)-1-isopropyl-pyrazole-4-sulfonamide] | > 6.60 | 6.00 to 6.60
CCCn1cc(S(=O)(=O)Nc2ccc(C)c3c(C#N)c[nH]c23)cn1 [Compound 90, N-(3-cyano-4-methyl-1H-indol-7-yl)-1-propyl-pyrazole-4-sulfonamide] | > 6.60 | > 6.60
COCCn1cc(S(=O)(=O)Nc2cccc3c(Cl)c[nH]c23)cn1 [Compound 49, N-(3-chloro-1H-indol-7-yl)-1-(2-methoxyethyl)pyrazole-4-sulfonamide] | > 6.60 | 6.00 to 6.60
Cc1ccc(NS(=O)(=O)c2cnn(C3CC4(COC4)C3)c2)c2[nH]cc(C#N)c12 [Compound 85, N-(3-cyano-4-methyl-1H-indol-7-yl)-1-(2-oxaspiro[3.3]heptan-6-yl)pyrazole-4-sulfonamide] | > 6.60 | 6.00 to 6.60
Cc1ccc(NS(=O)(=O)c2cnn(CC(C)(C)S(C)(=O)=O)c2)c2[nH]cc(C#N)c12 [Compound 84, N-(3-cyano-4-methyl-1H-indol-7-yl)-1-(2-methyl-2-methylsulfonyl-propyl)pyrazole-4-sulfonamide] | > 6.60 | < 6.00
CC1(Cn2cc(S(=O)(=O)Nc3cccc4c(Cl)c[nH]c34)cn2)COC1 [Compound 28, N-(3-chloro-1H-indol-7-yl)-1-[(3-methyloxetan-3-yl)methyl]pyrazole-4-sulfonamide] | > 6.60 | 6.00 to 6.60
Cc1ccc(NS(=O)(=O)c2cn[nH]c2)c2[nH]cc(C#N)c12 [Compound 62, N-(3-cyano-4-methyl-1H-indol-7-yl)-1H-pyrazole-4-sulfonamide] | > 6.60 | 6.00 to 6.60

The remaining lines, values ahead:

pIC50 [1] | pEC50 [2] | Compound
> 6.60 | > 6.60 | N#Cc1c[nH]c2c(NS(=O)(=O)c3cnn(C(F)F)c3N)cccc12 [Compound 292]
> 6.60 | > 6.60 | Cc1ccc(NS(=O)(=O)c2cnn(C(F)(F)CO)c2)c2[nH]cc(C#N)c12 [Compound 301, N-(3-cyano-4-methyl-1H-indol-7-yl)-1-(1,1-difluoro-2-hydroxy-ethyl)pyrazole-4-sulfonamide]
> 6.60 | > 6.60 | N#Cc1c[nH]c2c(NS(=O)(=O)c3cnn(CC(F)F)c3N)ccc(Cl)c12 [Compound 278, 5-amino-N-(4-chloro-3-cyano-1H-indol-7-yl)-1-(2,2-difluoroethyl)pyrazole-4-sulfonamide]
> 6.60 | 6.00 to 6.60 | Cc1ccc(NS(=O)(=O)c2cnn(C[C@H](N)C(F)(F)F)c2)c2[nH]cc(C#N)c12 [Compound 249, 1-[(2S)-2-amino-3,3,3-trifluoro-propyl]-N-(3-cyano-4-methyl-1H-indol-7-yl)pyrazole-4-sulfonamide]
> 6.60 | 6.00 to 6.60 | C[C@H](CO)n1ncc(S(=O)(=O)Nc2ccc(Cl)c3c(C#N)c[nH]c23)c1N [Compound 306, 5-amino-N-(4-chloro-3-cyano-1H-indol-7-yl)-1-[(1R)-2-hydroxy-1-methyl-ethyl]pyrazole-4-sulfonamide]
> 6.60 | 6.00 to 6.60 | COCC(CO)n1cc(S(=O)(=O)Nc2ccc(C)c3c(C#N)c[nH]c23)cn1 (stereo not drawn) [Compound 263, N-(3-cyano-4-methyl-1H-indol-7-yl)-1-[1-(hydroxymethyl)-2-methoxy-ethyl]pyrazole-4-sulfonamide]
> 6.60 | > 6.60 | Cc1ccc(NS(=O)(=O)c2cnn(CC(C)(C)CO)c2)c2[nH]cc(C#N)c12 [Compound 258, N-(3-cyano-4-methyl-1H-indol-7-yl)-1-(3-hydroxy-2,2-dimethylpropyl)-1H-pyrazole-4-sulfonamide]
> 6.60 | 6.00 to 6.60 | C[C@@H](CO)Cn1cc(S(=O)(=O)Nc2ccc(Cl)c3c(C#N)c[nH]c23)cn1 [Compound 265, N-(4-chloro-3-cyano-1H-indol-7-yl)-1-[(2R)-3-hydroxy-2-methyl-propyl]pyrazole-4-sulfonamide]
> 6.60 | 6.00 to 6.60 | CC(C)(CO)n1ncc(S(=O)(=O)Nc2cccc3c(C#N)c[nH]c23)c1Cl [Compound 251, 5-chloro-N-(3-cyano-1H-indol-7-yl)-1-(2-hydroxy-1,1-dimethyl-ethyl)pyrazole-4-sulfonamide]
